Measurements as given in patent US20110256121A1, “METHODS AND KITS FOR DIAGNOSING OR MONITORING AUTOIMMUNE AND CHRONIC INFLAMMATORY DISEASES” (THE REGENTS OF THE UNIVERSITY OF MICHIGAN, priority 2008, published 2011).

Experiments:
T cell gene expression = test: Microarray detection of KIR expression in 5-azaC treated T cells; type: cell-based, human
Experimental: (§1) T cell purification and culture. Peripheral blood mononuclear cells (PBMC) were isolated from healthy donors by density gradient centrifugation, stimulated for 18 hours with 1 μg/mlphytohemagglutinin (PHA) (Murex, Norcross, Ga.), then treated or not with 5 μm 5-azacytidine (5-azaC, Sigma, St. Louis, Mo.) for 72 hours as described (6). Total T cells, CD4^+ T cells or CD8′ T cells then were purified using the pan T cell isolation kit II or the CD4^+ and CD8^+ T cell isolation kit II from Miltenyi (Auburn, Calif.). T cells were typically >94% CD3^+ by flow cytometry. Jurkat cells (E6-1) were maintained in culture as described (11). This protocol was approved by the University of Michigan Institutional Review Board.
Microarray analysis. RNA from 5-azaC treated and untreated T cells was analyzed with HG-U133A arrays (Affymetrix, Santa Clara Calif.), containing 22283 probe-sets representing ˜13000 distinct genes, as described (6). Probe-set intensities were obtained and normalized as described (12). Two-sample T-tests were used to compare groups, and fold-changes were determined using the ratio of the group means, after replacing means of less than 50 with 50. The array data are available from NCBI's Gene Expression Omnibus using series accession number GSE6008.
Microarray detection of KIR expression in 5-azaC treated T cells. Effects of DNA methylation inhibition on T cell gene expression were tested by stimulating PBMC from healthy donors with PHA, treating with 5-azaC, and comparing gene expression patterns in treated and untreated T cells with microarrays. 682 probe-sets were obtained giving p<0.01, out of a total of 22283 probe-sets, so that approximately 223 of the 682 probe-sets were expected to be false-positives. Further demanding at least a 1.5 fold difference in the means of treated and untreated groups reduced the list to 250 probe-sets, 6 of which were KIR genes (KIR2DL1 5.7 fold p=0.003, KIR3DL1 5.7 fold p=0.001, KIR2DL2 4.2 fold p=0.0005, KIR2DS4 2.8 fold p=0.009, KIR2DL3 2.3 fold p=0.004, and KIR2DL4 1.7 fold p=0.008), out of a total of 12 KIR genes on the array, indicating enrichment of this gene family (FIG. 24).

KIR2DL2 = KIR2DL2 expression on T cells by flow cytometry; type: cell-based, human
Experimental: as §1
(§2) Flow Cytometric Analysis. The following monoclonal antibodies were used: CYC-anti-CD3, FITC-anti-CD8, CYC-anti-CD4, FITC-anti-CD28, CYC-mouse IgG1 and FITC-mouse-IgG1 (all from BD PharMingen, San Diego, Calif.). Anti-CD158b1/b2, j-PE (GL183, reactive with KIR 2DL2/2DL3/2DS2) was obtained from Beckman Coulter Immunotech (Buckinghamshire, UK), anti-CD158d-PE (anti-KIR2DL4) from R&D Systems (Minneapolis, Minn.), and PE-mouse-IgG2A from Abcam (Cambridge Mass.). Cell staining and fixation were performed as described (2; 6), and cells analyzed using a FACSCalibur flow cytometer (BD Biosciences, Franklin Lakes, N.J.).
Confirmation at the protein and mRNA levels. The effect of 5-azaC on KIR2DL2 and KIR2DL4 was confirmed in CD4+ and CD8+ T cells at the protein and mRNA levels. […] 5-azaC induces KIR2DL2 expression on both subsets, but a greater increase is seen on the CD8+ subset. FIG. 25b summarizes the effect of 5-azaC on KIR2DL2 expression in CD4+ and CD8+ T cells from healthy subjects. […] Since KIR is primarily expressed on CD28− T cells (24), KIR2DL2 expression was compared on CD28+ and CD28− T cells with and without 5-azaC treatment. KIR2DL2 expression increased on the CD28+ subset relative to untreated cells (1.9±0.2% vs 0.1±0.1%, 5-azaC treated vs untreated, n=3, p<0.001), but not on the CD28− subset (0.27±0.13% vs 0.30±0.18%, treated vs untreated, n=3).

KIR2DL4 = KIR2DL4 expression on T cells by flow cytometry; type: cell-based, human; settings: 5-azaC 72 h, p<0.001 for both
Experimental: as §1, §2

KIR = KIR expression on 5-azaC treated T cells, anti-KIR antibody cocktail, flow cytometry; type: cell-based, human
Text: Antibodies: Unconjugated and PE-conjugated anti-CD158d (KIR2DL4) were purchased from R&D Systems, Minneapolis, Minn. and unconjugated and PE-conjugated anti-NKB1 (KIR3DL1), anti-perforin antibodies and isotype matched control antibodies were obtained from BD PharMingen, San Diego Calif. PE-conjugated anti-CD158i (KIR2DS4) was obtained from Beckman Coulter (Fullerton Calif.). Anti-CD4-Cy5, anti-CD8-FITC, and PE-conjugated antibodies to and KIR2DS2 (anti-CD158b) were obtained from BD PharMingen, KIR2DL1/2DS2 (CD158a/h) and KIR3DL1/3DS1 (CD158e1/e2) from Beckman Coulter, and 2DL1/2DL3/2DS2 (anti-CD158 b1/b2/j (GL183) was purchased from R&D Systems. Minneapolis, Minn.). Ten microliters of each PE-conjugated anti-KIR antibody were mixed to form a “cocktail” used to stain the cells. […] Following staining, the cells were fixed in 1% paraformaldehyde and kept at 4° C. until analyzed. […]
CD4+ and CD8+ T cells demethylate and express KIR genes following treatment with the DNA methylation inhibitor 5-azaC. PBMC from 11 healthy subjects were stimulated with PHA, treated with 5-azaC, then KIR expression was measured on untreated and treated CD4+ and CD8+ cells using a “cocktail” of anti-KIR antibodies and flow cytometry as described in Materials and Methods above.

KIR3DL1 = target: T1, KIR3DL1 (Homo sapiens, UniProt P43629); test: Macrophage killing assay with 5-azaC treated T cells, 51Cr release; type: cell-based; settings: 18 hrs
T1 construct: endogenous in cells; host or cells: primary T cells of healthy donors, PHA-stimulated and 5-azaC treated, with autologous monocytes/macrophages
T1 sequence (P43629 22-444): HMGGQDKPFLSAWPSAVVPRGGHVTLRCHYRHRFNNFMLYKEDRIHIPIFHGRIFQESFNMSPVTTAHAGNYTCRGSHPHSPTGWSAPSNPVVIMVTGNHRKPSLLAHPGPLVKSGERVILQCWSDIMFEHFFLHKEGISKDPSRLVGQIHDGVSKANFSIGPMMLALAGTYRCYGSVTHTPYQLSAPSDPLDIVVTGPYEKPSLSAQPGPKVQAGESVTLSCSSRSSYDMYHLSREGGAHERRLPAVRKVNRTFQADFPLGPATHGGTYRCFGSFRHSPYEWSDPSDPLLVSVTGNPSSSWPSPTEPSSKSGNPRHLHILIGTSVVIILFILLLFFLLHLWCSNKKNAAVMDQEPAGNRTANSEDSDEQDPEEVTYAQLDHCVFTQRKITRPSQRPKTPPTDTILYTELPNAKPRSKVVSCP

Nc1ncn([C@@H]2O[C@H](CO)[C@@H](O)[C@H]2O)c(=O)n1 [5-azaC, 5-azacytidine]
KIR2DL2 expression, treated vs untreated (T cell gene expression; PHA-stimulated, p=0.0005): 4.2 fold
KIR3DL1 expression, treated vs untreated (T cell gene expression; PHA-stimulated, p=0.001): 5.7 fold
KIR2DL1 expression, treated vs untreated (T cell gene expression; PHA-stimulated, p=0.003): 5.7 fold
KIR2DL3 expression, treated vs untreated (T cell gene expression; PHA-stimulated, p=0.004): 2.3 fold
KIR2DL4 expression, treated vs untreated (T cell gene expression; PHA-stimulated, p=0.008): 1.7 fold
KIR2DS4 expression, treated vs untreated (T cell gene expression; PHA-stimulated, p=0.009): 2.8 fold
KIR2DS1 expression increase (T cell gene expression; not statistically significant): > 1.5 fold
KIR2DS3 expression increase (T cell gene expression; not statistically significant): > 1.5 fold
KIR3DL2 expression increase (T cell gene expression; not statistically significant): > 1.5 fold
KIR2DL2 expression on CD4+ and CD8+ T cells (KIR2DL2; 5-azaC 72 h, p<0.001 for each subset): increases KIR2DL2 expression on both
CD4 or CD8 expression (KIR2DL2; 5-azaC treated T cells): no significant effect
KIR2DL2 expression on the CD28+ subset (KIR2DL2; 5-azaC treated, untreated 0.1±0.1%, n=3, p<0.001): 1.9±0.2%
KIR2DL2 expression on the CD28− subset (KIR2DL2; 5-azaC treated, untreated 0.30±0.18%, n=3): 0.27±0.13%
KIR2DL4 expression on CD4+ and CD8+ T cells (KIR2DL4): induces KIR2DL4 expression on CD4+ and CD8+ T cells
expression of additional KIR proteins on T cells (KIR): induced expression of additional KIR proteins including KIR3DL1, KIR2DS4 and KIR2DL2/2DL3
KIR expression on CD4+ and CD8+ T cells (KIR; 11 healthy subjects, PHA, anti-KIR cocktail): significantly increases KIR expression
killing of autologous Mo by demethylated (5-azaC treated) T cells (KIR3DL1): spontaneously kill autologous Mo
